Square brackets hold non-standard residues; d marks the D form. Ends that are not written are not given here. pT = C[C@@H](OP(=O)(O)O)[C@H](N)C(=O)O; pS = N[C@@H](COP(=O)(O)O)C(=O)O
Tests used:
[1] = CPP and synthetic peptide binding to HA at 37° C.; conditions: affinity constant
Description: Similarly, we investigated the adsorption of the CPP and synthetic homologues and analogues onto HA (Table 2).

[2] = Calcium phosphate binding by CPP and synthetic homologues and analogues; conditions: for Vca: calcium bound per peptide; for VPi: inorganic phosphate bound per peptide; for Ca bound per molecule / Pi bound per molecule: maximal binding, 0.1% w/v peptide; for Ca/P: ratio of bound Ca to bound Pi
Description: Casein phosphopeptides containing the Ser(P) cluster, i.e. the core sequence motif Ser(P)-Ser(P)-Ser(P)-Glu-Glu-(SEQ ID NO: 5), have a marked ability to stabilize calcium phosphate in solution. Solutions containing 0.1% w/v αs1(59-79) (SEQ ID NO: 1) at various pH, calcium and phosphate concentrations, but constant ionic strengths were used to characterize the peptide's interaction with calcium phosphate.
The ion activity products for the various calcium phosphate phases [hydroxyapatite (HA); octacalcium phosphate (OCP); tricalcium phosphate (TCP); amorphous calcium phosphate (ACP); and dicalcium phosphate dihydrate (DCPD) were determined from the free calcium and phosphate concentrations at each pH using a computer program that calculates the ion activity coefficients through the use of the expanded Debye-Hückel equation and takes into account the ion pairs CaHPO4^o, CaH2PO4^+, CaPO4^−and CaOH^+ the dissociation of H3PO4 and H2O and the ionic strength. […] The peptide αs1(59-79) (SEQ ID NO: 1) binds to forming ACP clusters producing a metastable solution preventing ACP growth to the critical size required for nucleation and precipitation. The binding of αs1(59-79) (SEQ ID NO: 1) to ACP results in the formation of colloidal complexes with the unit formula [αs1(59-79) (SEQ ID NO: 1)(ACP)8]n where n is equal to or greater than one. It is likely that the predominant form is n=6 as αs1(59-79) (SEQ ID NO: 1) cross-linked with glutaraldehyde in the presence of ACP runs as a hexamer on polyacrylamide gel electrophoresis.
The relationship between CPP structure and interaction with amorphous calcium phosphate was investigated using a series of synthetic peptide homologues and analogues indicated in Table 1.

Row | K [1] | Vca [2] | VPi [2] | Ca bound per molecule [2] | Pi bound per molecule [2] | Ca/P [2] | calcium phosphate binding [2] | Substance
1 | 837 mL/µmol | – | – | – | – | – | – | θTθEE ([pT]T[pT]EE)
2 | 10,370 ml/μmol | 12 mol/mol | 8 mol/mol | 12 per molecule | 8 per molecule | 1.5 | – | AcGlu-Ser(P)-Ile-Ser(P)-Ser(P)-Ser(P)-Glu-GluNHMe [αs1(63-70)]
3 | 415 mL/µmol | 24 mol/mol | 16 mol/mol | 24 per molecule | 16 per molecule | 1.5 | – | QMEAEΣIΣΣΣEEIVPNΣVEQK (QMEAE[pS]I[pS][pS][pS]EEIVPN[pS]VEQK; listed as Bos sp.) [αs1(59-79), tryptic casein phosphopeptide]
4 | 1,013 ml/μmol | – | – | – | – | – | – | TθθEE (T[pT][pT]EE)
5 | – | 24 mol/mol | 16 mol/mol | – | – | 1.5 | – | RELEELNVPGEIVEΣLΣΣΣEESITR (RELEELNVPGEIVE[pS]L[pS][pS][pS]EESITR; listed as Bos sp.) [β(1-25), tryptic casein phosphopeptide]
6 | – | 2 mol/mol | 1 mol/mol | – | – | 2.0 | – | SθθEE (S[pT][pT]EE)
7 | – | 12 mol/mol | 8 mol/mol | – | – | 1.5 | – | EΣLΣΣΣEE [β(14-21)]
8 | 1,799 ml/μmol | – | – | – | – | – | – | θθTEE
9 | – | 0 mol/mol | 0 mol/mol | – | – | – | did not bind calcium phosphate | IVPN[pS]VEQ [αs1(71-78)]
10 | – | 0 mol/mol | 0 mol/mol | – | – | – | – | IAΣAEA (IA[pS]AEA)
11 | 6,579 ml/μmol | 2 mol/mol | 1 mol/mol | – | – | 2.0 | – | DΣΣEE (D[pS][pS]EE)
12 | – | 6 mol/mol | 4 mol/mol | – | – | 1.5 | – | AΣAΣAΣAΣAE (A[pS]A[pS]A[pS]A[pS]AE)
13 | – | 2 mol/mol | 1 mol/mol | – | – | 1.5 | – | AΣAΣAΣAE (A[pS]A[pS]A[pS]AE)
14 | – | 2 mol/mol | 1 mol/mol | – | – | 2.0 | – | SΣΣEE (S[pS][pS]EE)
15 | – | 0 mol/mol | 0 mol/mol | – | – | – | – | AΣAΣAE (A[pS]A[pS]AE)
16 | – | 0 mol/mol | 0 mol/mol | – | – | – | – | AΣAE (A[pS]AE)
17 | 1,513 ml/μmol | 2 mol/mol | 1 mol/mol | – | – | 2.0 | – | EΣΣEE (E[pS][pS]EE)
18 | 12,845 ml/μmol | 9 mol/mol | 6 mol/mol | – | – | 1.5 | – | [pS][pS][pS]EE [ΣΣΣEE]
19 | – | 0 mol/mol | 0 mol/mol | – | – | – | did not bind calcium phosphate | Gln-Met-Glu-Ala-Glu (QMEAE) [αs1(59-63)]
20 | – | 0 mol/mol | 0 mol/mol | – | – | – | – | EAIAΣAEA (EAIA[pS]AEA)

— patent US7312193B2, “Calcium phosphopeptide complexes” (The University of Melbourne, priority 1997, dated 2007)
